Laboratory results published in patent publication US20250296971A1, “GASTRIC INHIBITORY PEPTIDE RECEPTOR LIGANDS” (priority 2021, published 2025).
Read-outs that look alike come from different tables or passages of the source. *1 amine or outer side, *2 acyl side, *3 side chain or, on linkers, in order; H or OH if unused. Where a SMILES comes first, the peptide text is derived from it. Bridges are numbered along the chain shown (N, C = ends). [ ]: non-standard residue; d: D form. The star is where a group is joined. ξ: configuration not given here. X5 = NC(=O)[C@H](CCCCNC(=O)CN1CCN(CC(=O)O)CCN(CC(=O)O)CCN(CC(=O)O)CC1)NC(=O)CCC(=O)NCCCOCCOCCOCCCN*; X18 = O=C(CCN(CC(=O)[*:2])[*:1])NC[C@H](O)[C@@H](O)[C@H](O)[C@H](O)CO; X3 = O=C(O)CN1CCN(CC(=O)O)CCN(CC(=O)NCCCOCCOCCOCCCN*)CCN(CC(=O)O)CC1; Trp(5-Cl) = N[C@@H](Cc1c[nH]c2ccc(Cl)cc12)C(=O)O; Pyridine(2,6-diCH2) = c1cc(C[*:1])nc(C[*:2])c1; 1Nal = N[C@@H](Cc1cccc2ccccc12)C(=O)O; mXylylene = c1cc(C[*:1])cc(C[*:2])c1; X7 = c1cc(CSCCN[*:2])cc(C[*:1])c1; Hyp = O=C(O)[C@@H]1C[C@@H](O)CN1; Suc = O=C(CCC(=O)[*:2])[*:1]; NMeC = CN[C@@H](CS)C(=O)O; Thp = NC1(C(=O)O)CCOCC1; Aib = CC(C)(N)C(=O)O; ξP = O=C(O)C1CCCN1

Molecular target: T1, GIPR (CHO-K1-hGIPR cells) (Homo sapiens, UniProt P48546)
T1 construct: host or cells: CHO-K1
T1 sequence (P48546 22-466): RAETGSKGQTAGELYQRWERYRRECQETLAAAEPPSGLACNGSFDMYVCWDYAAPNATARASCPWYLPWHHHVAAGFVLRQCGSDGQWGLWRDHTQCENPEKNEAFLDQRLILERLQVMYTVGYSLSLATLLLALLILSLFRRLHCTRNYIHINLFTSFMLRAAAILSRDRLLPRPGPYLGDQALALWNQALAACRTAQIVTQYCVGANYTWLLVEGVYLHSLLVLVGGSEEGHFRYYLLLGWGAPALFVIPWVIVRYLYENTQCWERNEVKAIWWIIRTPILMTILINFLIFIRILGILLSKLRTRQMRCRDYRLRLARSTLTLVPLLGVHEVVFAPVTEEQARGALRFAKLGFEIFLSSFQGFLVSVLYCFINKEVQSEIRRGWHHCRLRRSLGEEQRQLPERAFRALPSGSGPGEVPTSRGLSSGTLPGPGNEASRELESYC
Test: FACS binding assay
Settings: read-out: pIC50 Category (converted)
Method in brief: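 Steps: detach CHO-K1-hGIPR cells (Accutase); wash in PBS/1% FCS; adjust to 500.000 cells per mL; wash ice-cold; incubate APC-streptavidin 1 μg/mL, 30 min on ice; wash twice; acquire on flow cytometer; fit MFI-concentration data with a four-parameter logistic model.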

[1] = competition with 20 nM GIP-057, 4° C. for 1 hour

| Structure (SMILES) | IC50 [1] [nM] | IC50 (competition with 20 nM GIP-057, 4° C., 1 hour) [nM] |
| --- | --- | --- |
| CC[C@H](C)[C@@H]1NC(=O)[C@@H](NC(=O)[C@H](Cc2c[nH]c3ccccc23)NC(=O)[C@H](CC(=O)O)NC(=O)[C@@H](CC(C)C)NC(=O)[C@H](CCC(=O)O)NC(=O)C2CCCN2C(=O)[C@H](Cc2c[nH]c3ccc(Cl)cc23)NC(=O)CCC(=O)NCCCOCCOCCOCCCNC(=O)CN2CCN(CC(=O)O)CCN(CC(=O)O)CCN(CC(=O)O)CC2)CSCc2cccc(c2)CSCCNC(=O)C(C)(C)NC(=O)[C@H](CC(C)C)NC1=O (stereo partly drawn) [GIP-306, DOTA-Ttds-5Clw-Pro-Glu-leu-Asp-Trp-[Cys(3MeBn)-Ile-Leu-Aib-AET]] ({X3-Suc}-[Trp(5-Cl)][ξP]E[dL]DWCIL[Aib]; linker 7-C via X7) | > 1000 | – |
| CC[C@H](C)[C@@H]1NC(=O)[C@H](CC(C)C)NC(=O)C2(CCOCC2)NC(=O)[C@@H](NC(=O)[C@@H](CC(C)C)NC(=O)[C@H](CCC(=O)O)NC(=O)[C@@H]2C[C@@H](O)CN2C(=O)[C@H](Cc2c[nH]c3ccc(Cl)cc23)NC(=O)[C@H](Cc2cccc3ccccc23)NC(=O)[C@H](CC(=O)O)NC(C)=O)CSCc2cccc(n2)CSC[C@@H](C(N)=O)NC1=O [GIP-380, Ac-Asp-1Ni-5Clw-Hyp-Glu-leu-[Cys(2Lut)-Thp-Leu-Ile-Cys]-NH2] (Ac-D[1Nal][Trp(5-Cl)][Hyp]E[dL]C[Thp]LIC-NH2; linker 7-11 via Pyridine(2,6-diCH2)) | < 10 | – |
| CC[C@H](C)[C@@H]1NC(=O)[C@H](CC(C)C)NC(=O)C(C)(C)NC(=O)[C@@H](N(C)C(=O)[C@H](CC(C)C)NC(=O)[C@H](CCC(=O)O)NC(=O)[C@@H]2CCCN2C(=O)[C@H](Cc2c[nH]c3ccccc23)NC(=O)[C@H](Cc2c[nH]c3ccccc23)NC(=O)[C@H](CC(=O)O)NC(C)=O)CSCc2cccc(c2)CSC[C@@H](C(=O)NCCCOCCOCCOCCCNC(=O)CCC(=O)N[C@@H](CCCCNC(=O)CN2CCN(CC(=O)O)CCN(CC(=O)O)CCN(CC(=O)O)CC2)C(N)=O)NC1=O [GIP-291, Ac-Asp-Trp-Trp-Pro-Glu-Leu-[Nmc(3MeBn)-Aib-Leu-Ile-Cys]-Ttds-Lys(DOTA)-NH2] (Ac-DWWPEL[NMeC][Aib]LIC-X5; linker 7-11 via mXylylene) | > 1000 | – |
| CC[C@H](C)[C@@H]1NC(=O)[C@H](CC(C)C)NC(=O)C2(CCOCC2)NC(=O)[C@@H](NC(=O)[C@@H](CC(C)C)NC(=O)[C@H](CCC(=O)O)NC(=O)CN(CCC(=O)NC[C@H](O)[C@@H](O)[C@H](O)[C@H](O)CO)C(=O)[C@H](Cc2c[nH]c3ccc(Cl)cc23)NC(=O)[C@H](Cc2c[nH]c3ccccc23)NC(=O)[C@H](CC(=O)O)NC(C)=O)CSCc2cccc(n2)CSC[C@@H](C(N)=O)NC1=O [GIP-176, Ac-Asp-Trp-5Clw-Nglu(AGLU)-Glu-leu-[Cys(2Lut)-Thp-Leu-Ile-Cys]-NH2] (Ac-DW[Trp(5-Cl)][X18]E[dL]C[Thp]LIC-NH2; linker 7-11 via Pyridine(2,6-diCH2)) | – | < 10 |

Second part, the compound after the results:

| IC50 [1] [nM] | IC50 (competition with 20 nM GIP-057, 4° C., 1 hour) [nM] | Structure (SMILES) |
| --- | --- | --- |
| < 10 | – | CC[C@H](C)[C@@H]1NC(=O)[C@H](CC(C)C)NC(=O)C2(CCOCC2)NC(=O)[C@@H](NC(=O)[C@@H](CC(C)C)NC(=O)[C@H](CCC(=O)O)NC(=O)[C@@H]2C[C@@H](O)CN2C(=O)[C@H](Cc2c[nH]c3ccc(Cl)cc23)NC(=O)[C@H](Cc2c[nH]c3ccc(Cl)cc23)NC(=O)[C@H](CC(=O)O)NC(C)=O)CSCc2cccc(n2)CSC[C@@H](C(N)=O)NC1=O [GIP-379, Ac-Asp-5Clw-5Clw-Hyp-Glu-leu-[Cys(2Lut)-Thp-Leu-Ile-Cys]-NH2] (Ac-D[Trp(5-Cl)][Trp(5-Cl)][Hyp]E[dL]C[Thp]LIC-NH2; linker 7-11 via Pyridine(2,6-diCH2)) |
| > 1000 | – | CC[C@H](C)[C@@H]1NC(=O)[C@H](CC(C)C)NC(=O)[C@H](C)NC(=O)[C@@H](NC(=O)[C@H](CC(C)C)NC(=O)[C@H](CCC(=O)O)NC(C)=O)CSCc2cccc(c2)CSC[C@@H](C(N)=O)NC1=O [GIP-327, Ac-Glu-Leu-[Cys(3MeBn)-Ala-Leu-Ile-Cys]-NH2] (Ac-ELCALIC-NH2; linker 3-7 via mXylylene) |
